Data from patent publication US4877779A, “2-aminomethylalkynylalkyl-1,3-dithiane derivatives” (priority 1988, dated 1989).
Where a name gives a salt, the structure may show the parent alone. Read-outs that look alike come from different tables or passages of the source.

Target: T1, calcium channel (guinea-pig isolated ileal longitudinal smooth muscle) (Cavia porcellus, UniProt O35505)
T1 construct: The longitudinal smooth muscle is carefully separated from the underlying circular muscle layer; from tissue; host or cells: guinea-pig ileal longitudinal smooth muscle
Experiment: Calcium Channel Antagonist Activity in Guinea-Pig Isolated Ileal Smooth Muscle
Format: cell-based
Description: Calcium Channel Antagonist Activity in Guinea-Pig Isolated Ileal Smooth Muscle.
Male albino guinea-pigs are sacrificed by stunning and exsanguination. The abdominal cavity is opened and the small intestine is removed, with about 10 cm of the terminal ileum being discarded. The tissue is placed in a dish containing Tyrode's solution (composition, mM: […]; KCl 2.68; NaHCO3 11.90; NaH2 PO4 0.36; MgCl2 0.98; CaCl2 1.77; dextrose 5.55), and cut into three to four segments. A glass rod (6 mm diameter) is carefully inserted into the lumen of each segment, and excess connective tissue or fat is removed. The longitudinal smooth muscle is carefully separated from the underlying circular muscle layer by gently stroking a moist cotton swab on a tangent to shallow, longitudinal incisions made parallel to the mesenteric attachment. Using gentle traction, and taking care to keep the segment moist at all times, the preparation is stripped from the remaining length of the ileal segment (Paton & Zar, J. Physiol. 194, 13; 1968).
Each preparation is suspended in a 10 mL jacketed glass tissue bath containing Tyrode's solution maintained at 37° C. and gassed with 5% CO2 in O2. The preparation is attached by silk thread to a force-displacement transducer. […] The initial resting tension is adjusted to 0.5 g and the preparation equilibrated for 55 minutes prior to experimentation. At the end of this period, the bathing solution is replaced with Ca^2+ -free Tyrode's solution. This solution is prepared by omitting CaCl2. The preparation is washed four times in Ca^2+ -free Tyrode 's to remove any Ca^2+ remaining in the bath, and allowed to equilibrate for a further 20 minutes.
Concentration-response curves to CaCl2 are obtained using the following procedure. Preparations are exposed to a depolarizing concentration of KCl (80 mM) for 6 minutes. At the end of this period CaCl2 is added to the bath cumulatively in the concentration range 0.2-8.0 mM. Successive additions of each Ca^2+ concentration are carried out only when the previous response has reached a plateau. When the maximum response has been attained the bath is again washed (five times) with Ca^2+ -free buffer, and the preparation re-equilibrated for approximately 15 minutes. A second Ca^2+ concentration-response curve is then obtained in the same manner. This second curve serves as control for that tissue.
Further curves are obtained in the presence of increasing concentrations of the test drugs. Where appropriate, the test drug is added to the bath immediately following addition of KCl, and 6 minutes later the concentration-response curve to Ca^2+ is obtained. Each test preparation is exposed to three different concentrations of a test drug.
For each ileal preparation, the control EC50 for Ca^2+ (the concentration producing 50% of the maximum response) is determined from the control concentration-response curve. Calcium blocking activity is defined as a Kb value (the concentration producing a two-fold dextral shift in the control curve), calculated from EC50 ratios in the absence and presence of test drugs.

[1] = Kb = concentration producing a two-fold dextral shift in the control CaCl2 concentration-response curve, KCl (80 mM) depolarized ileal smooth muscle, read-out: Calcium antagonist Kb

T1 sequence (O35505 whole entry): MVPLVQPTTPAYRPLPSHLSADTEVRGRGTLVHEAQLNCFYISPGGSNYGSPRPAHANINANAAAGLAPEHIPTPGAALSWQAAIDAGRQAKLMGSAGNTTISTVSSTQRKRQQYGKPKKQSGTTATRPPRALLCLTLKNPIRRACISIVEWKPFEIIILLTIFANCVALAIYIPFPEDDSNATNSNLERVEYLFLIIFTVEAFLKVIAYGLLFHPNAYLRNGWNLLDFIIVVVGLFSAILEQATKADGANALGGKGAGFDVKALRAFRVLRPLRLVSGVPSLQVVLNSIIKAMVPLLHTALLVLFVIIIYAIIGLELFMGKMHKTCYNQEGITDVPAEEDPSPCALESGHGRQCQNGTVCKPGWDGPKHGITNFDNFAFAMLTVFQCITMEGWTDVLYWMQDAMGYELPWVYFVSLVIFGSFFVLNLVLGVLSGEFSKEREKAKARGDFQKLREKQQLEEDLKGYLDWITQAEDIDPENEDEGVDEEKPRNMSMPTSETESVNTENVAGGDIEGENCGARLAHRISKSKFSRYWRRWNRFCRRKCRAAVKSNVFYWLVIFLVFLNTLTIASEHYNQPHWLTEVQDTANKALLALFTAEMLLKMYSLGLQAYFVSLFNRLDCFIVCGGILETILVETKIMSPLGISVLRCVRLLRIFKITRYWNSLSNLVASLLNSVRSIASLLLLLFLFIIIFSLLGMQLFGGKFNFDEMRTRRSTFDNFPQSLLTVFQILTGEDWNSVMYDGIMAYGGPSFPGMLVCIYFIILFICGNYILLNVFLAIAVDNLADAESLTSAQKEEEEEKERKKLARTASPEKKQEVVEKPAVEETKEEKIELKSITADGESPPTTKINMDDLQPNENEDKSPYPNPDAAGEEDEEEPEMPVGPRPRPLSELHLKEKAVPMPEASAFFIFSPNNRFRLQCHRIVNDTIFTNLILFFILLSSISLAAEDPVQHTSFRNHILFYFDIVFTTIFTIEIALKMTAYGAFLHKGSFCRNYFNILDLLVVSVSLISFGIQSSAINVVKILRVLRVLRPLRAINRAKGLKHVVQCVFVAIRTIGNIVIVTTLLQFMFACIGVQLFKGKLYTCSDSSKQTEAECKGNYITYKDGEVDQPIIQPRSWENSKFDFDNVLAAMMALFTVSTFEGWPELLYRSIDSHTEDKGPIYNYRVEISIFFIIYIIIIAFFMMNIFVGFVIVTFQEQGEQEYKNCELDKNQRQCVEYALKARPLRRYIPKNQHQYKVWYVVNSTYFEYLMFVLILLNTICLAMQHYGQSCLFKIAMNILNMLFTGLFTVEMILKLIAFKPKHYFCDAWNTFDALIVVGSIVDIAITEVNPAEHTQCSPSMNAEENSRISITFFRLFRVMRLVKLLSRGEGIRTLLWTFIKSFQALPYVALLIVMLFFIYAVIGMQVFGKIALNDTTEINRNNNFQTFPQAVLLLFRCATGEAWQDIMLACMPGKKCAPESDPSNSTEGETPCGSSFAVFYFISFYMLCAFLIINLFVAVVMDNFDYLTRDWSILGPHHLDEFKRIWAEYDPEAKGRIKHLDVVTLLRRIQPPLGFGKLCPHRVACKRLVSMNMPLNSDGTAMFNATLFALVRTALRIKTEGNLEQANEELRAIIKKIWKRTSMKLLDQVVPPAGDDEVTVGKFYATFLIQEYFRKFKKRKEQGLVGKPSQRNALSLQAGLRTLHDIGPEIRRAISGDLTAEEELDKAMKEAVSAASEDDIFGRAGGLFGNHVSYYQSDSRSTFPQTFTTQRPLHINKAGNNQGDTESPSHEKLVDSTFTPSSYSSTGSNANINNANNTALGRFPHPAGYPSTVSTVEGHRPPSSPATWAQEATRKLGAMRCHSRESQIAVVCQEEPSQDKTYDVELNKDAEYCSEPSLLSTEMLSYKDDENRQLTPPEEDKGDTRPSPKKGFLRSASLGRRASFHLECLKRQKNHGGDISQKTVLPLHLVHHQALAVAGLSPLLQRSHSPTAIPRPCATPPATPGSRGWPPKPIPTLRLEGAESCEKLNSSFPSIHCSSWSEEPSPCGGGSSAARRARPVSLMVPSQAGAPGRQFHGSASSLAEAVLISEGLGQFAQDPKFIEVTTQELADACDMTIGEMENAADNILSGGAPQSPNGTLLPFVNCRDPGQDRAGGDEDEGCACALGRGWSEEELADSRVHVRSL

Structure (SMILES) | Kb [1] [nM] | Kb [nM]
CN(CC#CCCC1(C2(O)c3ccccc3Oc3ccccc32)SCCCS1)CCCc1ccccc1 [2-[5-(3-Phenylpropyl)methylaminopent-3-ynyl]-2-(9-hydroxy-9H-xanthen-9-yl)-1,3-dithiane] | 3090 ± 990 | –
CN(CC#CCCC(O)(c1ccccc1)C1SCCCS1)CCc1ccccc1 (stereo not shown) [2-[6-(2-phenylethyl)methylamino-1-hydroxy-1-phenyl-hex-4-ynyl]-1,3-dithiane oxalate hemihydrate] | 2250 ± 530 | –
C(#CCN1CCCCC1)CCC1SCCCS1 [2-(5-Piperidinylpent-3-ynyl)-1,3-dithiane Oxalate] | > 10000 | –
CN(CC#CCCC1SCCCS1)Cc1cccc2ccccc12 [2-[5-(1-Naphthylmethyl)methylaminopent-3-ynyl]-1,3-dithiane Oxalate] | > 10000 | –
CCN(C)CC#CCCC1(C2(O)c3ccccc3-c3ccccc32)SCCCS1 [2-(5-Ethylmethylaminopent-3-ynyl)-2-(9-hydroxy-9H-fluoren-9-yl)-1,3-dithiane] | – | 1230 ± 470
CCN(CC)CC#CCCC1(C(C)(O)c2ccccc2)SCCCS1 (stereo not drawn) [2-(5-Diethylaminopent-3-ynyl)-2-(α-hydroxy-α-methylbenzyl)-1,3-dithiane] | 2510 ± 400 | –
CN(CC#CCCCC1SCCCS1)CCc1ccccc1 [2-[6-(2-Phenylethyl)methylaminohex-4-ynyl]-1,3-dithiane Oxalate] | 4180 ± 1540 | –
CCCN(CC#CCCCC1(C2(O)c3ccccc3Oc3ccccc32)SCCCS1)CCC [2-(6-Dipropylaminohex-4-ynyl)-2-(9-hydroxy-9H-xanthen-9-yl)-1,3-dithiane] | 470 ± 150 | –
COc1ccc(CCN(C)CC#CCCC2SCCCS2)cc1OC [2-[5-[2-(3,4-Dimethoxyphenyl)ethyl]methylaminopent-3-ynyl]-1,3-dithiane Oxalate] | 2220 ± 70 | –
COc1ccc(CCN(C)CC#CCCC(O[Si](C)(C)C)(c2ccccc2)C2SCCCS2)cc1OC (stereo not shown) [2-[6-[2-(3,4-Dimethoxyphenyl)ethyl]methylamino-1-phenyl-1-trimethylsilyloxyhex-4-ynyl]-1,3-dithiane] | 570 ± 30 | –
CN1CCN(CC#CCCC2(C3(O)c4ccccc4Oc4ccccc43)SCCCS2)CC1 [2-[5-(4-Methylpiperazinyl)pent-3-ynyl]-2-(9-hydroxy-9H-xanthen-9-yl)-1,3-dithiane Dioxalate] | 488 ± 30 | –
CCN(CC)CC#CCC1(c2ccccc2)SCCCS1 [2-(4-diethylaminobut-2-ynyl)-2-phenyl-1,3-dithiane oxalate] | 4270 ± 430 | –
CCN(CC)CC#CCCC1(C2(O)c3ccccc3-c3ccccc32)SCCCS1 [2(5-Diethylaminopent-3-ynyl)-2-(9-hydroxy-9H-fluoren-9-yl)-1,3-dithiane] | 500 ± 100 | –
CN(CC#CCCC1SCCCS1)CCCc1ccccc1 [2-[5-(3-Phenylpropyl)methylaminopent-3-ynyl]-1,3-dithiane Oxalate] | 2980 ± 590 | –
CCN(CC)CC#CCCC(O)(c1ccccc1)C1SCCCS1 (stereo not shown) [2-(6-diethylamino-1-hydroxy-1-phenylhex-4-ynyl)-1,3-dithiane oxalate] | 6710 ± 1450 | –
CCCN(CC#CCCCC1(C2(O)c3ccccc3Sc3ccccc32)SCCCS1)CCC [2-(6-Dipropylaminohex-4-ynyl)-2-(9-hydroxy-9H-thioxanthen-9-yl)-1,3-dithiane] | 770 | –
CCN(CC)CC#CCCC1(C2(O)c3ccccc3Sc3ccc(Cl)cc32)SCCCS1 (stereo not shown) [2-(5-Diethylaminopent-3-ynyl)-2-(2-chloro-9-hydroxy-9H-thioxanthen-9-yl)-1,3-dithiane Oxalate] | 330 ± 50 | –
CN(CC#CCCC1(c2ccccc2)SCCCS1)CCc1ccccc1 [2-[5-(2-Phenylethyl)methylaminopent-3-ynyl]-2-phenyl-1,3-dithiane Oxalate] | 1740 ± 1080 | –
OC1(C2(CCC#CCN3CCCCC3)SCCCS2)c2ccccc2Sc2ccccc21 [2-(5-Piperidinylpent-3-ynyl)-2-(9-hydroxy-9H-thioxanthen-9-yl)-1,3-dithiane] | 3660 ± 2040 | –
CN1CCN(CC#CCCC2SCCCS2)CC1 [2-[5-(4-Methylpiperazinyl)pent-3-ynyl]-1,3-dithiane Dioxalate] | > 10000 | –

Structure (SMILES) | Kb [1] [nM] | Kb [nM]
CCN(CC)CC#CCCC1(C2(O)c3ccccc3Sc3ccccc32)SCCCS1 [2-(5-Diethylaminopent-3-ynyl)-2-(9-hydroxy-9H-thioxanthen-9-yl)-1,3-dithiane Oxalate] | 125 ± 18 | –
CN(C)CC#CCCC1(C2(O)c3ccccc3-c3ccccc32)SCCCS1 [2-(5-Dimethylaminopent-3-ynyl)-2-(9-hydroxy-9H-fluoren-9-yl)-1,3-dithiane] | 1810 ± 390 | –
CN(CC#CCCC1(C(O)(c2ccccc2)c2ccccc2)SCCCS1)Cc1ccccc1 [2-[5-(Benzylmethylaminopent-3-ynyl]-2-(α-hydroxy-α-phenylbenzyl)-1,3-dithiane Oxalate Hemihydrate] | 3170 ± 760 | –
CCN(CC)CC#CCCC1(C(c2ccccc2)c2ccccc2)SCCCS1 [2-(5-Diethylaminopent-3-ynyl)-2-benzhydryl-1,3-dithiane Oxalate Hydrate] | 500 | –
CCN(CC)CC#CCCC1(Cc2ccccc2)SCCCS1 [2-(5-Diethylaminopent-3-ynyl)-2-benzyl-1,3-dithiane Oxalate] | 1960 ± 400 | –
CN(CC#CCCC1(C(O)(c2ccccc2)C2CCCCC2)SCCCS1)CCc1ccccc1 (stereo not drawn) [2-[5-(2-Phenylethyl)methylaminopent-3-ynyl]-2-(α-cyclohexyl-α-hydroxybenzyl)-1,3-dithiane Oxalate] | 3750 ± 1250 | –
OC1(C2(CCC#CCN3CCCCC3)SCCCS2)c2ccccc2-c2ccccc21 [2-(5-Piperidinylpent-3-ynyl)-2-(9-hydroxy-9H-fluoren-9-yl)-1,3-dithiane] | 1000 ± 70 | –
CCN(CC)CC#CCCC1(C2(O)CCOc3ccccc32)SCCCS1 (stereo not shown) [2(5-Diethylaminopent-3-ynyl)-2-(4-hydroxy-4H-chromanyl)-1,3-dithiane] | 1940 ± 210 | –
CCCN(CC#CCC1(c2ccccc2)SCCCS1)CCC [2-(4-Dipropylaminobut-2-ynyl)-2-phenyl-1,3-dithiane, Oxalate] | 1010 ± 150 | –
CN(CC#CCCC1(C2(O)c3ccccc3Sc3ccccc32)SCCCS1)CCCc1ccccc1 [2-[5-(3-Phenylpropyl)methylaminopent-3-ynyl]-2-(9-hydroxy-9H-thioxanthen-9-yl)-1,3-dithiane] | 4160 ± 860 | –
CN(CC#CCCC1SCCCS1)CCCCc1ccccc1 [2-[5-(4-Phenylbutyl)methylaminopent-3-ynyl]-1,3-dithiane Oxalate] | 3430 ± 830 | –
CCN(CC)CC#CCCCC1SCCCS1 [2-(6-Diethylaminohex-4-ynyl)-1,3-dithiane Oxalate] | > 10000 | –
CCN(C)CC#CCCC1(C2(O)c3ccccc3Oc3ccccc32)SCCCS1 [2-(5-Ethylmethylaminopent-3-ynyl)-2-(9-hydroxy-9H-xanthen-9-yl)-1,3-dithiane] | 1510 ± 530 | –
CN(CC#CCCC1(C2(O)c3ccccc3Sc3ccc(Cl)cc32)SCCCS1)CCCc1ccccc1 (stereo not shown) [2-[5-(3Phenylpropyl)methylaminopent-3-ynyl)-2-(2-chloro-9-hydroxy-9H-thioxanthen-9-yl)-1,3-dithiane Hemioxalate] | > 7000 | –
OC1(C2(CCC#CCN3CCCCC3)SCCCS2)c2ccccc2Oc2ccccc21 [2-(5-Piperidinylpent-3-ynyl)-2-(9-hydroxy-9H-xanthen-9-yl)-1,3-dithiane] | 399 ± 40 | –
CN(CC#CCCC1(C(O)(c2ccccc2)c2ccccc2)SCCCS1)CCc1ccccc1 [2-[5-(2-Phenylethyl)methylaminopent-3-ynyl]-2-(α-hydroxy-α-phenylbenzyl)-1,3-dithiane Oxalate Hemihydrate] | 2650 ± 1210 | –
CCCN(CC#CCCCC1(C2(O)c3ccccc3-c3ccccc32)SCCCS1)CCC [2-(6-Dipropylaminohex-4-ynyl)-2-(9-hydroxy-9H-fluoren-9-yl)-1,3-dithiane] | 560 ± 80 | –
CN(C)CC#CCCC1(C2(O)c3ccccc3Sc3ccccc32)SCCCS1 [2-(5-Dimethylaminopent-3-ynyl)-2-(9-hydroxy-9H-thioxanthen-9-yl)-1,3-dithiane] | 680 ± 130 | –
CCN(C)CC#CCCC1(C2(O)c3ccccc3Sc3ccc(Cl)cc32)SCCCS1 (stereo not shown) [2-(5-Ethylmethylaminopent-3-ynyl)-2-(2-chloro-9-hydroxy-9H-thioxanthen-9-yl)-1,3-dithiane] | 2530 ± 1030 | –
C(#CCN1CCCC1)CCC1SCCCS1 [2-(5-Pyrrolidinylpent-3-ynyl)-1,3-dithiane Oxalate] | > 10000 | –
